According to PubChem BioAssay (NCI):
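A five-concentration, 48-hour dose response in 96-well plates underlies each endpoint, interpolated linearly between surrounding concentrations. TGI is the concentration that stops growth completely.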

What was measured:
Experiment in all cases: growth of human tumour cells (NCI), 48 h
CCRF-CEM leukemia = test system: CCRF-CEM leukemia
HCC-2998 colon = test system: HCC-2998 colon
HCT-15 colon = test system: HCT-15 colon
HS 578T breast = test system: HS 578T breast
K-562 leukemia = test system: K-562 leukemia
NCI-H522 lung = test system: NCI-H522 lung
RXF 393 renal = test system: RXF 393 renal
SF-539 CNS = test system: SF-539 CNS
SN12C renal = test system: SN12C renal
UO-31 renal = test system: UO-31 renal
HOP-62 NSCLC = test system: HOP-62 NSCLC
SK-OV-3 ovarian = test system: SK-OV-3 ovarian

SMILES | TGI (CCRF-CEM leukemia) | TGI (HCC-2998 colon) | TGI (HCT-15 colon) | TGI (HS 578T breast) | TGI (K-562 leukemia) | TGI (NCI-H522 lung) | TGI (RXF 393 renal) | TGI (SF-539 CNS) | TGI (SN12C renal) | TGI (UO-31 renal) | TGI (HOP-62 NSCLC) | TGI (SK-OV-3 ovarian)
C/C=C/C=C/C1=NN(c2cccc(S(=O)(=O)O)c2)C2(C1)SCC(=O)N2c1nc2ccccc2s1 (stereo not given) | 77.7 µM | > 100 µM | > 100 µM | > 100 µM | > 100 µM | > 100 µM | > 100 µM | > 100 µM | > 100 µM | > 100 µM | – | –
Cc1ccccc1NC(=S)N/N=C(/c1ccccc1)c1ccccn1 | 11.6 µM | 14.3 µM | 15.8 µM | 31.2 µM | 4.17 µM | 3.4 µM | 12.3 µM | 7.76 µM | 10 µM | 4.25 µM | 11.5 µM | 14.2 µM
C=C1C(=O)[C@]23[C@H](O)[C@H]1CC[C@H]2[C@@]12CO[C@@]3(O)C[C@@H]1C(C)(C)CC[C@@H]2O | > 25 µM | 23.4 µM | 19.6 µM | 22.2 µM | > 25 µM | 8.8 µM | 11.5 µM | 16.7 µM | > 25 µM | > 25 µM | > 25 µM | –
COC(=O)C1=C(OC(=O)/C(=C/c2ccc(Cl)cc2)c2ccccc2)C(C(=O)OC)[C@@]2(O)[C@@H](C(=O)OC)[C@H](C)C[C@@H]1[C@@H]2C(=O)OC (stereo not given in full) | > 100 µM | > 100 µM | > 100 µM | > 100 µM | > 100 µM | > 100 µM | > 100 µM | > 100 µM | > 100 µM | > 100 µM | > 100 µM | > 100 µM
O=C([C@H](O)[C@@H](O)c1ccc(Br)cc1)C12CC3CC(CC(C3)C1)C2 | > 30.8 µM | > 38.9 µM | > 75 µM | > 85.9 µM | > 100 µM | > 57.7 µM | > 100 µM | > 28.7 µM | > 65.8 µM | > 55.2 µM | 26.6 µM | > 75.2 µM
O=C(c1ccc(Cl)cc1)N1N=C(c2ccc(Cl)cc2)CC1(O)c1cc(F)c(Cl)cc1Cl (stereo not given) | > 100 µM | 47.1 µM | > 100 µM | > 100 µM | > 100 µM | > 100 µM | > 100 µM | > 100 µM | 73.4 µM | 22.2 µM | 76.9 µM | > 100 µM
CC(=O)O[C@H]1CC[C@@]2(C)C(=CC[C@@H]3[C@@H]2CC[C@]2(C)c4nc(N)c(C#N)cc4C[C@@H]32)C1 | > 89.5 µM | > 100 µM | > 42.6 µM | > 95.2 µM | > 100 µM | > 100 µM | 49 µM | 64 µM | > 100 µM | > 100 µM | 46.5 µM | > 83.8 µM
CN(N)C(=O)NCCCl | > 100 µM | > 100 µM | > 100 µM | > 100 µM | > 100 µM | > 100 µM | > 100 µM | > 100 µM | > 100 µM | > 100 µM | > 100 µM | > 100 µM
O=C(c1ccc(Cl)cc1)N(Cc1cccnc1)C(=S)N(Cc1cccnc1)C(=O)c1ccc(Cl)cc1 | > 100 µM | 61.3 µM | > 100 µM | > 100 µM | > 100 µM | 69.1 µM | > 100 µM | 50.4 µM | 48.1 µM | 98.4 µM | > 100 µM | > 100 µM
